Measured values reported in US20140309171A1, “MARKER FOR BLOOD COAGULATION” (Universite Catholique De Louvain, priority 2011, published 2014).
“Also recorded” adds a separate entry of the source.

Assays:
[1] = system: Ser79 acetyl-CoA carboxylase (ACC) phosphorylation in human platelets; assay: Western blot of phosphorylated (Ser79) ACC in human platelets; type: cell-based; settings: isolated washed human platelets treated with the agonist
Protocol: (§1) Washed human platelets (used in in vitro studies). Platelets were obtained from adult healthy volunteers in accordance with the Ethics Commission of our institution (Commission d'Ethique Biomédicale Hospitalo-Facultaire, Université catholique de Louvain). Whole blood was collected with butterfly needle 21G into Sodium Citrate 1:10 solution (S-monovette). Platelet-rich plasma (PRP) was obtained by 15 min centrifugation at 330 g. The platelets pellet was then washed in Tyrode modified buffer (135 mM NaCl, 12 mM NaHCO3, 1 mM Sodium Citrate, 2.9 mM KCl, 0.3 mM Na2HPO4, 1 mM MgCl2, 5 mM D-glucose, 10 mM Hepes, 0.35% bovine serum albumin (BSA), pH 7.4 at 37° C.) and resuspended to a density of 2.5 10^5 platelets/μl for the measurement of intracellular Ca^2+ or platelet aggregation. For Western Blot analysis, PRP with eptifibatide 4 μg/ml (Integriline, GlaxoSmithKline) and ectonucleotidase apyrase (grade I) 0.5 U/ml was layered over a density barrier of iodixanol (Optiprep®) that allowed the erythrocytes and leucocytes to pellet during centrifugation at 350 g for 15 min. The platelets, because of their small size, sediment much more slowly. After centrifugation at 800 g for 10 min, the resulting pellet was resuspended to a density of 2·10^5 platelets/μl in Tyrode modified buffer before treatment and lysis of samples.
(§2) Proteins were separated as described (Miranda et al. 2010. J Clin Invest 103(6): 879-887). The membranes were probed with the following antibodies: α1/α2 AMPK (Kinasource), phospho-ACC (S79) (1:1000; Cell Signalling), phospho-MLC (S19) (1:10000; Sigma-Aldrich), phospho-VASP (T278) (1:1000; ECM Bioscience), cofilin (Cell Signalling), phospho-cofilin (Ser 3) (Cell Signalling). Bound antibodies were detected by enhanced chemiluminescence (Thermofisher). For each gel, control of loading was realized by immunoblotting using an anti-β-actin (1:10000; Santa Cruz Biotechnology), anti-gelsolin (Santa Cruz Biotechnology) or anti-GAPDH (1:1000; Cell Signalling) antibody after the membranes were stripped. Band intensities were quantified by scanning and processing image intensities with the program ImageJ (1.33 for Mac OS X). The quantification of immunoblots presented in results was obtained after normalization using the internal loading control.
Platelets were isolated from human blood samples as described in the experimental procedures. The isolated platelets were treated with increasing doses of thrombin (0.01, 0.03, 0.1, 0.3 and 1 U/ml), the thromboxane A2 (TXA2) receptor agonist U46619 (0.1, 0.3, 1, 3 and 10 μM), collagen (0.5, 1, 2.5, 5 and 10 μg/ml) or ADP (2.5, 5, 10, 25 nd 50 μM) for 1 min. Following treatment, the platelets were lysed and subjected to Western blotting for determining phosphorylation of Ser79 of ACC.

[2] = Post-operative bleeding (chest tube drainage) in cardiac surgery patients; type: in vivo, human; settings: patient 6, after restoration of coagulation by protamine administration
Protocol: (§3) A blood sample was drawn during CPB. […] ACT was measured at the bedside of the patients: a sample of blood was drawn, transferred into an appropriate test vial and the clotting time was measured. The second sample was taken 4 h after surgery and the coagulation was assessed in the same time (activated partial thromboplastin time, apTT; thrombin time, TT). Thrombin time (Thromboclotin™, Siemens, Marburg, Germany) and activated partial thromboplastin time (Platelin L; bioMerieux, France) were measured in a tube containing 0.129 M of trisodium citrate and determined using a coagulation device (MDA II coagulation analyzeer; bioMérieux). After surgery, a chest tube was inserted and a closed chest drainage system was attached to promote drainage of air and fluid. Bleeding was evaluated by the amount of blood collected in the chest tube of drainage over a period of 6 h after admission in intensive cares.

blood coagulation [3] = assay: Thrombin time (TT) in cardiac surgery patients; type: in vivo, human
Protocol: as §3

blood coagulation [4] = assay: Activated partial thromboplastin time (aPTT) in cardiac surgery patients; type: in vivo, human
Protocol: as §3

[5] = system: cofilin phosphorylation in platelets from WT mice; assay: Western blot of cofilin phosphorylation in murine platelets; type: cell-based, mouse; settings: thrombin 0.05 U/ml
Protocol: (§4) Eight- to 12-week-old mice were bled under sodium pentobarbital anesthesia (25-35 mg·kg^−1) from the retroorbital plexus. Mouse blood was collected in a 1/10 ACD solution (12 mM citric acid, 15 mM sodium citrate, 25 mM glucose) with ectonucleotidase apyrase (grade I) 0.5 U/ml. PRP was obtained by centrifugation at 800 g for 5 s followed by 5 min at 150 g. PRPs from three animals were pooled. Platelets were washed in Tyrode modified buffer and resuspended to a density of 2.5 10^5 platelets/μl for the measurement of platelet aggregation and for Western Blot analysis. At least three independent experiments were performed on PRP from different pools.
as §2, with “For each gel, control of loading was realized by immunoblotting using an anti-β-actin (1:10000; Santa Cruz Biotechnology), anti-gelsolin (Santa Cruz Biotechnology) or anti-GAPDH (1:1000; Cell Signalling) antibody after the membranes were stripped.” left out

[6] = system: VASP Thr 278 phosphorylation; assay: Western blot of VASP Thr278 phosphorylation in human platelets; type: cell-based; settings: human platelets, 0.1 U/ml thrombin
Protocol: (§5) Washed human platelets (used in in vitro studies). Platelets were obtained from adult healthy volunteers in accordance with the Ethics Commission of our institution (Commission d'Ethique Biomédicale Hospitalo-Facultaire, Université catholique de Louvain). Whole blood was collected with butterfly needle 21G into Sodium Citrate 1:10 solution (S-monovette). Platelet-rich plasma (PRP) was obtained by 15 min centrifugation at 330 g. The platelets pellet was then washed in Tyrode modified buffer (135 mM NaCl, 12 mM NaHCO3, 1 mM Sodium Citrate, 2.9 mM KCl, 0.3 mM Na2HPO4, 1 mM MgCl2, 5 mM D-glucose, 10 mM Hepes, 0.35% bovine serum albumin (BSA), pH 7.4 at 37° C.) and resuspended to a density of 2.5 10^5 platelets/μl for the measurement of intracellular Ca^2+ or platelet aggregation. […]
(§6) Proteins were separated as described (Miranda et al. 2010. J Clin Invest 103(6): 879-887). […] Bound antibodies were detected by enhanced chemiluminescence (Thermofisher). […] Band intensities were quantified by scanning and processing image intensities with the program ImageJ (1.33 for Mac OS X). The quantification of immunoblots presented in results was obtained after normalization using the internal loading control.

[7] = system: myosin light chain (MLC) Ser 19 phosphorylation; assay: Western blot of MLC Ser19 phosphorylation in human platelets; type: cell-based; settings: human platelets, 0.1 U/ml thrombin, significant after 2 min, persisted till 10 min
Protocol: as §5, §6

[8] = system: VASP phosphorylation in platelets from WT mice; assay: Western blot of VASP phosphorylation in murine platelets; type: cell-based, mouse; settings: thrombin 0.05 U/ml
Protocol: as §4
as §2, with “For each gel, control of loading was realized by immunoblotting using an anti-β-actin (1:10000; Santa Cruz Biotechnology), anti-gelsolin (Santa Cruz Biotechnology) or anti-GAPDH (1:1000; Cell Signalling) antibody after the membranes were stripped.” left out

AMPK = AMPK enzyme assay after immunoprecipitation from platelet extracts; type: cell-based; settings: human platelets treated with 0.1 U/ml thrombin
Protocol: AMPK was immunoprecipitated with 10 μg of α1-AMPK or α2-AMPK antibodies (Kinasource) from 50 μg of platelet extracts and assayed in a final volume of 50 μl Hepes 50 mM, pH 7.2, with 0.2 mM SAMS peptide (Substrate for AMP-activated Protein Kinase, Tocris Bioscience), 0.2 mM adenosine 5′-monophosphate (AMP), and 0.1 mM [^32P]MgATP (specific radioactivity: 1000 cpm/pmol; Perkin Elmer) at 30° C. Aliquots (10 μl) were removed and spotted onto Whatman P81 papers for measurement of ^32P incorporation. One unit of protein kinase activity corresponds to the incorporation of 1 nmol of phosphate into the appropriate peptide substrate per min under the assay conditions.
AMPK was immunoprecipitated with anti-α1- and anti-α2-AMPK antibodies prior to AMPK assay. The AMPK catalytic α1-subunit isoform accounted for the total AMPK activity in platelets (FIG. 1B), confirming the immunoblotting results.

washed human platelets = assay: Platelet aggregation, light transmission (Chrono-Log Aggregometer); type: cell-based; settings: 0.025 U/ml thrombin alone
Protocol: as §1
Light transmission during thrombin-induced platelet aggregation in human and murine PRP was recorded with a Chrono-Log Aggregometer at 37° C., under stirring condition (1200 crpm). The platelet suspension was incubated with dimethyl sulfoxide (DMSO, vehicle) or STO-609 (10 μM, Tocris) for 2 min before the addition of the thrombin (+/−0.03 U/ml). CaCl2 2 mM was added prior to the agonists.
To evaluate the potential implication of CaMKKβ in platelet aggregation, washed human platelets were pre-incubated for 2 min with 10 μM STO-609, prior to treatment with thrombin or ADP.

[9] = system: MLC phosphorylation in platelets from WT mice; assay: Western blot of MLC phosphorylation in murine platelets; type: cell-based, mouse; settings: thrombin 0.05 U/ml
Protocol: as §4
as §2, with “For each gel, control of loading was realized by immunoblotting using an anti-β-actin (1:10000; Santa Cruz Biotechnology), anti-gelsolin (Santa Cruz Biotechnology) or anti-GAPDH (1:1000; Cell Signalling) antibody after the membranes were stripped.” left out

[10] = system: cofilin Ser3 phosphorylation; assay: Western blot of cofilin Ser3 phosphorylation in human platelets; type: cell-based; settings: human platelets, 0.1 U/ml thrombin, maximal at 1 min, persisted for 10 min
Protocol: as §5, §6

blood coagulation [11] = assay: Activated coagulation time (ACT) in cardiac surgery patients; type: in vivo, human
Protocol: as §3

[12] = patient 6, after protamine injection
[13] = n = 29 patients, during surgery, after 47086±17766 UI UFH
[14] = patient 1, during surgery, UFH 17000 units
[15] = patient 2, during surgery, UFH 33000 units
[16] = patient 3, during surgery, UFH 25500 units
[17] = patient 4, during surgery, UFH 10000 units
[18] = patient 5, during surgery, UFH 25000 units
[19] = patient 6, during surgery, UFH 41000 units

## Nc1ncnc2c1ncn2[C@@H]1O[C@H](COP(=O)(O)OP(=O)(O)O)[C@@H](O)[C@H]1O [ADP, adenosine diphosphate]
[1]
  Ser79 ACC phosphorylation induced by platelet agonist: not observed; also recorded: not lead to ACC phosphorylation; also recorded: failed to increase

## CCCCC[C@H](O)/C=C/[C@@H]1[C@@H](C/C=C\CCCC(=O)O)[C@H]2CO[C@@H]1C2 [U46619]
[1]
  Ser79 ACC phosphorylation induced by platelet agonist: not observed; also recorded: failed to increase

## collagen
[1]
  Ser79 ACC phosphorylation induced by platelet agonist: not observed; also recorded: failed to increase

## protamine
[2]
  Bleeding: controlled
Blood coagulation [3]; [12]
  TT: 30 s
Blood coagulation [4]; [12]
  aPTT: 27 s

## thrombin
[5]
  phosphorylation of cofilin induced by agonist: increase
[6]
  VASP phosphorylation on Thr 278 induced by agonist: significant increased phosphorylation
[7]
  MLC Ser 19 phosphorylation induced by agonist: increase
[8]
  phosphorylation of VASP induced by agonist: increase
AMPK
  AMPK activation: led to AMPK activation; also recorded: induces AMPK activation
[1]
  Ser79 ACC phosphorylation induced by platelet agonist: increased; also recorded: specifically induced
Washed human platelets
  platelet aggregation, % of aggregation: 69±3%
[9]
  phosphorylation of MLC induced by agonist: increase
[10]
  cofilin phosphorylation in Ser3 induced by agonist: increase

## unfractionated heparin [UFH]
Blood coagulation [11]; mean of patients 1-6, during surgery, after 25250±11000 UI UFH
  ACT, mean: 568 ± 65 s
Blood coagulation [11]; [13]
  ACT, mean: 594 ± 100 s
Blood coagulation [11]; [14]
  ACT: 485 s
Blood coagulation [11]; [15]
  ACT: 523 s
Blood coagulation [11]; [16]
  ACT: 635 s
Blood coagulation [11]; [17]
  ACT: 498 s
Blood coagulation [11]; [18]
  ACT: 698 s
Blood coagulation [11]; [19]
  ACT: 568 s
Blood coagulation [3]; [13]
  TT, mean: >120 s
Blood coagulation [3]; [14]
  TT: >120 s
Blood coagulation [3]; [15]
  TT: >120 s
Blood coagulation [3]; [16]
  TT: >120 s
Blood coagulation [3]; [17]
  TT: >120 s
Blood coagulation [3]; [18]
  TT: >120 s
Blood coagulation [3]; [19]
  TT: >120 s
Blood coagulation [3]; patients 1-6, during surgery, after 25250±11000 UI UFH
  TT, mean: >120 s
Blood coagulation [4]; [14]
  aPTT: >180 s
Blood coagulation [4]; patient 2, 4 h after surgery, UFH 33000 units
  aPTT: >180 s
Blood coagulation [4]; [16]
  aPTT: >180 s
Blood coagulation [4]; [17]
  aPTT: >180 s
Blood coagulation [4]; [18]
  aPTT: >180 s
Blood coagulation [4]; [19]
  aPTT: >180 s
